Active and inactive are the calls of the source. The rule behind the calls is not given here.
What was measured:
Plasmodium falciparum [1] = assay: Antiplasmodial activity against Plasmodium falciparum 3D7 assessed as inhibition of parasite growth; format: functional, organism-based
[2] = target: Alpha-synuclein (Homo sapiens) (UniProt P37840); assay: Binding affinity to human alpha-synuclein expressed in Escherichia coli BL21 (DE3) at 100 uM incubated for 3 hrs by ETD Q-TOF ((+) HRESIMS) analysis
HEK293 = assay: Cytotoxicity against HEK293 cells assessed as reduction in cell viability at 80 uM measured after 72 hrs by resazurin dye based fluorescence assay relative to control; format: toxicity; conditions: human, hek293, 72 h
Plasmodium falciparum [3] = assay: Antiplasmodial activity against ring stage drug-sensitive Plasmodium falciparum 3D7 assessed as inhibition of parasite growth incubated for 72 hrs by DAPI staining based assay; format: functional, organism-based; conditions: 3D7, 72 h
[4] = Selectivity index, ratio of IC50 for cytotoxicity against HEK293 cells to IC50 for antiplasmodial activity against ring stage drug-sensitive Plasmodium falciparum 3D7; format: toxicity, cell-based; conditions: human, HEK293 cells versus ring stage Plasmodium falciparum 3D7; read-out: Ratio IC50
Plasmodium falciparum [5] = assay: Antiplasmodial activity against ring stage drug-sensitive Plasmodium falciparum 3D7 assessed as inhibition of parasite growth at 40 uM incubated for 72 hrs by DAPI staining based assay; format: functional, organism-based
Staphylococcus aureus [6] = assay: Antibacterial activity against methicillin-susceptible Staphylococcus aureus ATCC 25923 at 64 ug/mL incubated for 16 to 18 hrs by resazurin dye based fluorescence assay; format: functional, organism-based; conditions: dose 64.0 µg/ml, time 16-18 hrs
Pseudomonas aeruginosa = assay: Antibacterial activity against Pseudomonas aeruginosa ATCC 27853 at 64 ug/mL incubated for 18 hrs by resazurin dye based fluorescence assay; format: functional, organism-based; conditions: dose 64.0 µg/ml
Staphylococcus aureus [7] = assay: Antibacterial activity against methicillin-resistant Staphylococcus aureus ATCC 43300 at 64 ug/mL incubated for 16 to 18 hrs by resazurin dye based fluorescence assay; format: functional, organism-based; conditions: dose 64.0 µg/ml, time 16-18 hrs
[8] = Cytotoxicity against HEK293 cells assessed as reduction in cell viability measured after 72 hrs by resazurin dye based fluorescence assay; format: toxicity; conditions: human
[9] = target: Alpha-synuclein (Homo sapiens) (UniProt P37840); assay: Inhibition of human alpha-synuclein aggregation expressed in Escherichia coli BL21 (DE3) at 400 uM measured after 36 hrs by thioflavin T fluorescence assay
[10] = target: Alpha-synuclein (Homo sapiens) (UniProt P37840); assay: Inhibition of human alpha-synuclein aggregation expressed in Escherichia coli BL21 (DE3) at 10:1 compound to protein molar ratio measured after 36 hrs by thioflavin T fluorescence assay relative to control; conditions: concentration not given here

Compound	Activity [2]	Activity (HEK293)	IC50 (Plasmodium falciparum [3]) [nM]	selectivity ratio [4]	other results
O=C1C=C(c2ccc(O)cc2)[C@@]2(O1)O[C@@]1(OC(=O)C=C1c1ccc(O)cc1)C(c1ccc(O)cc1)=C2c1ccc(O)cc1	–	–	–	–	IC50 (Plasmodium falciparum [1]): 5100 nM
CC1(C)C=C2C(=O)C(C)(C)C(=O)C(C)(C)[C@@]2(O)OO1	inactive	–	–	–	–
CC1(C)CC2=C(OO1)C(C)(C)C(=O)C(C)(C)C2=O	inactive	Non-Toxic	–	–	–
CCc1nc(N)nc(N)c1-c1ccc(Cl)cc1 [PYRIMETHAMINE]	–	31%	17	588	–
CC(C)CC[C@]1(O)[C@H](O)C(C)(C)[C@@H](O)C(C)(C)[C@@H]1O	–	–	–	–	Activity (Plasmodium falciparum [5]): inactive
CC(C)(O)[C@@H]1CC[C@@]2(C)CCC[C@@](C)(O)[C@@H]2C1	inactive	–	–	–	–
CC(C)C[C@@]1(O)C(=O)C(C)(C)C(=O)C(C)(C)[C@H]1OC(=O)C(C)C	inactive	Non-Toxic	6600	> 12.1	Activity (Staphylococcus aureus [6]): inactive; Activity (Pseudomonas aeruginosa): inactive; Activity (Staphylococcus aureus [7]): inactive
CC(C)CC(=O)c1c(O)c2c(c3c1O[C@@]1(C(C)C)OC4=C(C(=O)C(C)(C)C(=O)C4(C)C)[C@@H]31)OC1=C(C(=O)C(C)(C)C(=O)C1(C)C)[C@H]2CC(C)C	–	–	–	–	IC50 (Plasmodium falciparum [1]): 1000 nM
CC(C)CC(=O)c1c(O)c2c(c3c1O[C@@]1(C(C)C)OC4=C(C(=O)C(C)(C)C(=O)C4(C)C)[C@@H]31)OC1=C(C(=O)C(C)(C)C(=O)C1(C)C)[C@@H]2CC(C)C	–	–	–	–	IC50 (Plasmodium falciparum [1]): > 40000 nM
CC(=O)O[C@@H]1C(C)(C)C(=O)C(C)(C)C(=O)[C@]1(O)CC(C)C	inactive	–	–	–	–
COc1ccc(C[C@H](N)C(=O)N[C@H]2[C@@H](O)[C@H](n3cnc4c(N(C)C)ncnc43)O[C@@H]2CO)cc1 [PUROMYCIN]	–	–	91	9.2	IC50 at 72 h [8]: 837 nM
CC(C)C[C@]1(O)C(O)=C([C@@H](C2=C(O)C(C)(C)C(=O)C(C)(C)C2=O)C(C)C)C(=O)C([C@H](C2=C(O)C(C)(C)C(=O)C(C)(C)C2=O)C(C)C)=C1O	Active	Non-Toxic	9500	> 8.4	inhibition [9]: inactive; Activity (Staphylococcus aureus [6]): inactive; Activity (Pseudomonas aeruginosa): inactive; Activity (Staphylococcus aureus [7]): inactive; inhibition [10]: 39.5%
CC(C)=C[C@@]1(O)C(=O)C(C)(C)C(=O)C(C)(C)[C@H]1OC(=O)C(C)C	inactive	Non-Toxic	16000	> 5	Activity (Staphylococcus aureus [6]): inactive; Activity (Pseudomonas aeruginosa): inactive; Activity (Staphylococcus aureus [7]): inactive
C[C@H]1[C@H](OC(=O)CCC(=O)O)O[C@@H]2O[C@@]3(C)CC[C@H]4[C@H](C)CC[C@@H]1[C@@]24OO3 [ARTESUNATE]	–	20%	1.4	1750	–
CC(C)=CC(=O)[C@]1(O)[C@@H](O)C(C)(C)C(=O)C1(C)C	inactive	–	–	–	–
